{"source": "patent US20100197650A1", "about": "“COMPOSITIONS AND METHODS OF TREATMENT COMPRISING CEFTAROLINE” (FOREST LABORATORIES HOLDINGS LTD., priority 2008, published 2010)", "key": {"P. aeruginosa": {"system": "P. aeruginosa", "test": "Susceptibility testing MIC/MBC, broth microdilution (Example 2)", "format": "cell-based, Pseudomonas aeruginosa", "settings": "for MBC / MIC: Pseudomonas aeruginosa; for MBC: read-out: MBC; for MIC: read-out: MIC"}, "[1]": {"system": "clinical Enterobacteriacae and P. aeruginosa isolates", "test": "Susceptibility testing (Example 2), summary over species", "format": "cell-based", "settings": "selected clinical isolates, except for 4 E. cloacae"}, "[2]": {"system": "ESBL-producing Klebsiella pneumoniae", "test": "Susceptibility testing MIC/MBC, broth microdilution (Example 2)", "format": "cell-based", "settings": "for MBC / MIC: Klebsiella pneumoniae; for MBC: read-out: MBC; for MIC: read-out: MIC"}, "Streptococcus pneumoniae": {"system": "Streptococcus pneumoniae", "test": "MIC, broth microdilution (Example 1)", "format": "cell-based", "settings": "Streptococcus pneumoniae, read-out: MIC", "summary_of_the_method": "(§1)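 CLSI broth microdilution with seven 2-fold dilutions per agent made in DMSO, the drug making up 5% of final well volume. H. influenzae was tested in Haemophilus Test Medium, S. pneumoniae in Mueller Hinton II broth with 2% lysed horse blood, and the others in Mueller Hinton II broth. Incubation was 35 °C for about 20 h, with visual reading.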"}, "Klebsiella pneumoniae": {"system": "Klebsiella pneumoniae", "test": "MIC, broth microdilution (Example 1)", "format": "cell-based", "summary_of_the_method": "as §1"}, "Streptococcus pyogenes": {"system": "Streptococcus pyogenes", "test": "MIC, broth microdilution (Example 1)", "format": "cell-based", "settings": "Streptococcus pyogenes, read-out: MIC", "summary_of_the_method": "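Frozen clinical or ATCC isolates are subcultured overnight on agar at 35 °C. Agents are serially diluted 2-fold in DMSO, then added to broth at 5% volume: HTM for Haemophilus, MH II for the rest, plus 2% lysed horse blood for pneumococci. Plates are incubated ~20 h at 35 °C and read visually.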"}, "HA-MRSA": {"system": "HA-MRSA", "test": "Susceptibility testing MIC/MBC, broth microdilution (Example 3)", "format": "cell-based, Staphylococcus aureus", "settings": "for MIC: read-out: MIC; for MIC50: read-out: MIC50", "experimental": "Two hundred clinical HA-MRSA isolates, harboring the SCCmecIV type, were evaluated for susceptibility testing. […] Four strains, including 1 hVISA and 1 VISA, characterized by population analysis profile and Macro Etest were selected for time-kill analysis.\nTrypose soy agar (TSA; Difco, Detroit, Mich.) was used for colony counting.\nMinimum inhibitory concentrations (MIC) and minimum bactericidal concentrations (MBC) were determined by broth microdilution for all antimicrobials, according to the Clinical and Laboratory Standards Institute (CLSI) guidelines (Clinical and Laboratory Standards Institute. 2006. Methods for Dilution Antimicrobial Susceptibility Tests for Bacteria That Grow Aerobically; Approved Standard. 7th ed. Wayne, Pa.: CLSI). MBC values were determined by plating of aliquots of 5 μL from clear wells onto TSA. All susceptibility testing were performed in duplicate."}, "[3]": {"settings": "P. aeruginosa (20) clinical isolates"}, "[4]": {"settings": "K. pneumonia (10) clinical isolates"}, "[5]": {"settings": "HA-MRSA isolates of origin Blood"}, "[6]": {"settings": "HA-MRSA isolates of origin Lung"}, "[7]": {"settings": "HA-MRSA isolates of origin Skin"}, "[8]": {"settings": "HA-MRSA isolates of origin Unknown"}, "[9]": {"settings": "HA-MRSA isolates of origin Urine"}}, "note": "Like-named read-outs stand apart in the source and are kept apart here."}
{"molecule": "CCO/N=C(\\C(=O)N[C@@H]1C(=O)N2C(C(=O)[O-])=C(Sc3nc(-c4cc[n+](C)cc4)cs3)CS[C@H]12)c1nsc(N)n1", "note": "[Ceftaroline]", "values": [{"measurement": "MBC range", "setting": "P. aeruginosa; [3]", "value": "16 to 256", "unit": "µg/mL"}, {"measurement": "MIC range", "setting": "P. aeruginosa; [3]", "value": "8 to 256", "unit": "µg/mL"}, {"measurement": "MBC", "setting": "P. aeruginosa; P. aeruginosa isolate no. 796", "value": 32, "unit": "µg/mL"}, {"measurement": "MIC", "setting": "P. aeruginosa; P. aeruginosa isolate no. 796", "value": 16, "unit": "µg/mL"}, {"measurement": "MBC", "setting": "P. aeruginosa; P. aeruginosa isolate no. 956", "value": 256, "unit": "µg/mL"}, {"measurement": "MIC", "setting": "P. aeruginosa; P. aeruginosa isolate no. 956", "value": 128, "unit": "µg/mL"}, {"measurement": "MBC", "setting": "P. aeruginosa; P. aeruginosa isolate no. 1019", "value": 64, "unit": "µg/mL"}, {"measurement": "MIC", "setting": "P. aeruginosa; P. aeruginosa isolate no. 1019", "value": 32, "unit": "µg/mL"}, {"measurement": "MBC", "setting": "P. aeruginosa; P. aeruginosa isolate no. 1037", "value": 16, "unit": "µg/mL"}, {"measurement": "MIC", "setting": "P. aeruginosa; P. aeruginosa isolate no. 1037", "value": 8, "unit": "µg/mL"}, {"measurement": "MIC range", "setting": "[1]", "value": "2 to 1024", "unit": "µg/mL"}, {"measurement": "MBC range", "setting": "[2]; [4]", "value": "32 to 1024", "unit": "µg/mL"}, {"measurement": "MIC range", "setting": "[2]; [4]", "value": "8 to 1024", "unit": "µg/mL"}, {"measurement": "MBC", "setting": "[2]; K. pneumonia isolate no. 5427", "value": 16, "unit": "µg/mL"}, {"measurement": "MIC", "setting": "[2]; K. pneumonia isolate no. 5427", "value": 4, "unit": "µg/mL"}, {"measurement": "MBC", "setting": "[2]; K. pneumonia isolate no. 5436", "value": 1020, "unit": "µg/mL"}, {"measurement": "MIC", "setting": "[2]; K. pneumonia isolate no. 5436", "value": 1020, "unit": "µg/mL"}, {"measurement": "MIC", "setting": "Streptococcus pneumoniae; PRSP, S. pneumoniae 0876 (PRSP)", "value": 0.12, "unit": "µg/mL"}, {"measurement": "MIC", "setting": "Streptococcus pneumoniae; PRSP, S. pneumoniae 0877 (PRSP)", "value": 0.12, "unit": "µg/mL"}, {"measurement": "MIC", "setting": "Streptococcus pneumoniae; PRSP, S. pneumoniae 0880 (PRSP)", "value": 0.12, "unit": "µg/mL"}, {"measurement": "MIC", "setting": "Streptococcus pneumoniae; PRSP, S. pneumoniae 0884 (PRSP)", "value": 0.12, "unit": "µg/mL"}, {"measurement": "MIC", "setting": "Streptococcus pneumoniae; S. pneumoniae 0869 (PSSP)", "value": 0.008, "unit": "µg/mL"}, {"measurement": "MIC", "setting": "Klebsiella pneumoniae; K. pneumoniae 1461", "value": 0.5, "unit": "µg/mL"}, {"measurement": "MIC", "setting": "Klebsiella pneumoniae; Klebsiella pneumoniae, K. pneumoniae 1340, read-out: MIC", "value": 0.12, "unit": "µg/mL"}, {"measurement": "MIC", "setting": "Klebsiella pneumoniae; Klebsiella pneumoniae, K. pneumoniae 1461, read-out: MIC", "value": 0.25, "unit": "µg/mL"}, {"measurement": "MIC", "setting": "Klebsiella pneumoniae; Klebsiella pneumoniae, K. pneumoniae 1468 (ESBL), read-out: MIC", "value": 32, "unit": "µg/mL"}, {"measurement": "MIC", "setting": "Streptococcus pyogenes; S. pyogenes 0717", "value": 0.008, "unit": "µg/mL"}, {"measurement": "MIC", "setting": "Streptococcus pyogenes; S. pyogenes 0722", "value": 0.008, "unit": "µg/mL"}, {"measurement": "% of Isolates with MBC 0.5 μg/mL", "setting": "HA-MRSA; 200 HA-MRSA isolates", "value": 22, "unit": "%"}, {"measurement": "% of Isolates with MBC 1 μg/mL", "setting": "HA-MRSA; 200 HA-MRSA isolates", "value": 62.5, "unit": "%"}, {"measurement": "% of Isolates with MBC 2 μg/mL", "setting": "HA-MRSA; 200 HA-MRSA isolates", "value": 15.5, "unit": "%"}, {"measurement": "% of Isolates with MIC 0.25 μg/mL", "setting": "HA-MRSA; 200 HA-MRSA isolates", "value": 4, "unit": "%"}, {"measurement": "% of Isolates with MIC 0.5 μg/mL", "setting": "HA-MRSA; 200 HA-MRSA isolates", "value": 35.5, "unit": "%"}, {"measurement": "% of Isolates with MIC 1 μg/mL", "setting": "HA-MRSA; 200 HA-MRSA isolates", "value": 57, "unit": "%"}, {"measurement": "% of Isolates with MIC 2 μg/mL", "setting": "HA-MRSA; 200 HA-MRSA isolates", "value": 1.5, "unit": "%"}, {"measurement": "MBC range", "setting": "HA-MRSA; 200 HA-MRSA isolates", "value": "0.5 to 2", "unit": "µg/mL"}, {"measurement": "MIC range", "setting": "HA-MRSA; 200 HA-MRSA isolates", "value": "0.25 to 2", "unit": "µg/mL"}, {"measurement": "MBC range", "setting": "HA-MRSA; [5]", "value": "0.5 to 2", "unit": "µg/mL"}, {"measurement": "MIC range", "setting": "HA-MRSA; [5]", "value": "0.25 to 2", "unit": "µg/mL"}, {"measurement": "MBC range", "setting": "HA-MRSA; [6]", "value": "0.5 to 2", "unit": "µg/mL"}, {"measurement": "MIC range", "setting": "HA-MRSA; [6]", "value": "0.25 to 2", "unit": "µg/mL"}, {"measurement": "MBC range", "setting": "HA-MRSA; [7]", "value": "0.5 to 2", "unit": "µg/mL"}, {"measurement": "MIC range", "setting": "HA-MRSA; [7]", "value": "0.5 to 2", "unit": "µg/mL"}, {"measurement": "MBC range", "setting": "HA-MRSA; [8]", "value": "0.5 to 2", "unit": "µg/mL"}, {"measurement": "MIC range", "setting": "HA-MRSA; [8]", "value": "0.5 to 1", "unit": "µg/mL"}, {"measurement": "MBC range", "setting": "HA-MRSA; [9]", "value": "0.5 to 2", "unit": "µg/mL"}, {"measurement": "MIC range", "setting": "HA-MRSA; [9]", "value": "0.5 to 1", "unit": "µg/mL"}, {"measurement": "MBC", "setting": "HA-MRSA; Staphylococcus aureus, MRSA / VISA, HA-MRSA isolate R2303 (VISA), read-out: MBC", "value": 0.25, "unit": "µg/mL"}, {"measurement": "MIC", "setting": "HA-MRSA; Staphylococcus aureus, MRSA / VISA, HA-MRSA isolate R2303 (VISA)", "value": 0.25, "unit": "µg/mL"}, {"measurement": "MIC50", "setting": "HA-MRSA; Staphylococcus aureus, MRSA, 200 HA-MRSA isolates", "value": 1, "unit": "µg/mL"}, {"measurement": "MBC", "setting": "HA-MRSA; Staphylococcus aureus, MRSA, HA-MRSA isolate R3804, read-out: MBC", "value": 0.25, "unit": "µg/mL"}, {"measurement": "MIC", "setting": "HA-MRSA; Staphylococcus aureus, MRSA, HA-MRSA isolate R3804", "value": 0.25, "unit": "µg/mL"}, {"measurement": "MBC", "setting": "HA-MRSA; Staphylococcus aureus, MRSA, HA-MRSA isolate R3875 (hVISA), read-out: MBC", "value": 1, "unit": "µg/mL"}, {"measurement": "MIC", "setting": "HA-MRSA; Staphylococcus aureus, MRSA, HA-MRSA isolate R3875 (hVISA)", "value": 1, "unit": "µg/mL"}, {"measurement": "MBC", "setting": "HA-MRSA; Staphylococcus aureus, MRSA, HA-MRSA isolate R4039, read-out: MBC", "value": 0.5, "unit": "µg/mL"}, {"measurement": "MIC", "setting": "HA-MRSA; Staphylococcus aureus, MRSA, HA-MRSA isolate R4039", "value": 0.5, "unit": "µg/mL"}, {"measurement": "MBC", "setting": "HA-MRSA; Staphylococcus aureus, MRSA, HA-MRSA isolates of origin Blood, read-out: MBC50", "value": 1, "unit": "µg/mL"}, {"measurement": "MIC50", "setting": "HA-MRSA; Staphylococcus aureus, MRSA, HA-MRSA isolates of origin Blood", "value": 1, "unit": "µg/mL"}, {"measurement": "MBC", "setting": "HA-MRSA; Staphylococcus aureus, MRSA, HA-MRSA isolates of origin Lung, read-out: MBC50", "value": 1, "unit": "µg/mL"}, {"measurement": "MIC50", "setting": "HA-MRSA; Staphylococcus aureus, MRSA, HA-MRSA isolates of origin Lung", "value": 1, "unit": "µg/mL"}, {"measurement": "MBC", "setting": "HA-MRSA; Staphylococcus aureus, MRSA, HA-MRSA isolates of origin Skin, read-out: MBC50", "value": 1, "unit": "µg/mL"}, {"measurement": "MIC50", "setting": "HA-MRSA; Staphylococcus aureus, MRSA, HA-MRSA isolates of origin Skin", "value": 1, "unit": "µg/mL"}, {"measurement": "MBC", "setting": "HA-MRSA; Staphylococcus aureus, MRSA, HA-MRSA isolates of origin Unknown, read-out: MBC50", "value": 1, "unit": "µg/mL"}, {"measurement": "MIC50", "setting": "HA-MRSA; Staphylococcus aureus, MRSA, HA-MRSA isolates of origin Unknown", "value": 1, "unit": "µg/mL"}, {"measurement": "MBC", "setting": "HA-MRSA; Staphylococcus aureus, MRSA, HA-MRSA isolates of origin Urine, read-out: MBC50", "value": 1, "unit": "µg/mL"}, {"measurement": "MIC50", "setting": "HA-MRSA; Staphylococcus aureus, MRSA, HA-MRSA isolates of origin Urine", "value": 0.5, "unit": "µg/mL"}, {"measurement": "MIC90", "setting": "HA-MRSA; Staphylococcus aureus, 200 HA-MRSA isolates, read-out: MIC90", "value": 1, "unit": "µg/mL"}]}
